Experimental data published in patent US20260053811A1, “METHODS OF TREATING HYPERTENSION IN OBESE SUBJECTS” (Mineralys Therapeutics, Inc., priority 2022, published 2026).

Test system: hypertensive subjects
Assay: Adverse events (TEAEs, SAEs, AESI, study drug discontinuation, dose modification);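 note: counts of spontaneously reported adverse events in the Safety Analysis Set, subjects grouped by treatment actually received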
Format: in vivo, human
Settings: Part 1
Text: In analyses performed on the Safety Analysis Set, subjects will be analyzed according to their actual treatment received.

For `CC(=O)N[C@H]1CC[C@H](NC(=O)CN2CCN(c3nncc(-c4ccc(C)cc4)n3)CC2)CC1` [Compound A HBr], the “On-treatment TEAE: Infections and infestations, Moderate” value (12.5 mg QD (N = 23)) was 0 n (%), the “On-treatment TEAE: Investigations” value (12.5 mg QD (N = 23)) was 3 (13.0) n (%) and the “On-treatment TEAE: Investigations, Mild” value (12.5 mg QD (N = 23)) was 3 (13.0) n (%). The “On-treatment TEAE: Investigations, Moderate” value (12.5 mg QD (N = 23)) was 0 n (%), the “On-treatment TEAE: Metabolism and nutrition disorders” value (12.5 mg QD (N = 23)) was 6 (26.1) n (%) and the “On-treatment TEAE: Metabolism and nutrition disorders, Mild” value (12.5 mg QD (N = 23)) was 4 (17.4) n (%). The “On-treatment TEAE: Metabolism and nutrition disorders, Moderate” value (12.5 mg QD (N = 23)) was 1 (4.3) n (%), the “On-treatment TEAE: Nervous system disorders” value (12.5 mg QD (N = 23)) was 2 (8.7) n (%) and the “On-treatment TEAE: Nervous system disorders, Mild” value (12.5 mg QD (N = 23)) was 2 (8.7) n (%). The “On-treatment TEAE: Orthostatic hypotension” value (12.5 mg QD (N = 23)) was 2 (8.7) n (%), the “On-treatment TEAE: Orthostatic hypotension, Mild” value (12.5 mg QD (N = 23)) was 2 (8.7) n (%) and the “On-treatment TEAE: Psychiatric disorders” value (12.5 mg QD (N = 23)) was 0 n (%). The “On-treatment TEAE: Psychiatric disorders, Moderate” value (12.5 mg QD (N = 23)) was 0 n (%), the “On-treatment TEAE: Urinary tract infection” value (12.5 mg QD (N = 23)) was 1 (4.3) n (%) and the “On-treatment TEAE: Urinary tract infection, Mild” value (12.5 mg QD (N = 23)) was 1 (4.3) n (%). The “On-treatment TEAE: Vascular disorders” value (12.5 mg QD (N = 23)) was 3 (13.0) n (%), the “On-treatment TEAE: Vascular disorders, Mild” value (12.5 mg QD (N = 23)) was 2 (8.7) n (%) and the “On-treatment TEAE: Vascular disorders, Moderate” value (12.5 mg QD (N = 23)) was 1 (4.3) n (%). For the same compound, the “On-treatment TEAE: any, Mild” value (12.5 mg QD (N = 23)) was 12 (52.2) n (%), the “On-treatment TEAE: any, Moderate” value (12.5 mg QD (N = 23)) was 3 (13.0) n (%) and the “On-treatment TEAE: any, Severe” value (12.5 mg QD (N = 23)) was 1 (4.3) n (%). The “Subjects with any On-treatment TEAEs leading to withdrawal from study drug” value (12.5 mg QD (N = 23)) was 4 (17.4) n (%), the “TEAE leading to permanent discontinuation from study drug: Activated partial thromboplastin time prolonged” value (12.5 mg QD (N = 23)) was 0 n (%) and the “TEAE leading to permanent discontinuation from study drug: Cardiac disorders” value (12.5 mg QD (N = 23)) was 1 (4.3) n (%). For the same compound, the “TEAE leading to permanent discontinuation from study drug: Coronary artery disease” value (12.5 mg QD (N = 23)) was 1 (4.3) n (%), the “TEAE leading to permanent discontinuation from study drug: Dizziness” value (12.5 mg QD (N = 23)) was 1 (4.3) n (%) and the “TEAE leading to permanent discontinuation from study drug: Hyperkalaemia” value (12.5 mg QD (N = 23)) was 2 (8.7) n (%). The “TEAE leading to permanent discontinuation from study drug: Hypertension” value (12.5 mg QD (N = 23)) was 0 n (%), the “TEAE leading to permanent discontinuation from study drug: Hypotension” value (12.5 mg QD (N = 23)) was 0 n (%) and the “TEAE leading to permanent discontinuation from study drug: Investigations” value (12.5 mg QD (N = 23)) was 0 n (%). For the same compound, the “TEAE leading to permanent discontinuation from study drug: Metabolism and nutrition disorders” value (12.5 mg QD (N = 23)) was 2 (8.7) n (%), the “TEAE leading to permanent discontinuation from study drug: Nervous system disorders” value (12.5 mg QD (N = 23)) was 1 (4.3) n (%) and the “TEAE leading to permanent discontinuation from study drug: Orthostatic hypotension” value (12.5 mg QD (N = 23)) was 0 n (%). For the same compound, the “TEAE leading to permanent discontinuation from study drug: Vascular disorders” value (12.5 mg QD (N = 23)) was 0 n (%), the “On-treatment TEAE: Blood and lymphatic system disorders” value (25 mg BID (N = 30)) was 2 (6.7) n (%) and the “On-treatment TEAE: Blood and lymphatic system disorders, Mild” value (25 mg BID (N = 30)) was 2 (6.7) n (%). The “On-treatment TEAE: Blood creatinine increased” value (25 mg BID (N = 30)) was 0 n (%), the “On-treatment TEAE: Blood creatinine increased, Mild” value (25 mg BID (N = 30)) was 0 n (%) and the “On-treatment TEAE: Cardiac disorders” value (25 mg BID (N = 30)) was 0 n (%). For the same compound, the “On-treatment TEAE: Cortisol decreased” value (25 mg BID (N = 30)) was 1 (3.3) n (%), the “On-treatment TEAE: Cortisol decreased, Mild” value (25 mg BID (N = 30)) was 1 (3.3) n (%) and the “On-treatment TEAE: Dizziness” value (25 mg BID (N = 30)) was 0 n (%). The “On-treatment TEAE: Gastrointestinal disorders” value (25 mg BID (N = 30)) was 1 (3.3) n (%), the “On-treatment TEAE: Gastrointestinal disorders, Mild” value (25 mg BID (N = 30)) was 1 (3.3) n (%) and the “On-treatment TEAE: General disorders and administration site conditions” value (25 mg BID (N = 30)) was 0 n (%). The “On-treatment TEAE: General disorders and administration site conditions, Mild” value (25 mg BID (N = 30)) was 0 n (%), the “On-treatment TEAE: Glomerular filtration rate decreased” value (25 mg BID (N = 30)) was 0 n (%) and the “On-treatment TEAE: Glomerular filtration rate decreased, Mild” value (25 mg BID (N = 30)) was 0 n (%). For the same compound, the “On-treatment TEAE: Headache” value (25 mg BID (N = 30)) was 2 (6.7) n (%), the “On-treatment TEAE: Headache, Mild” value (25 mg BID (N = 30)) was 2 (6.7) n (%) and the “On-treatment TEAE: Hyperkalaemia” value (25 mg BID (N = 30)) was 9 (30.0) n (%). For the same compound, the “On-treatment TEAE: Hyperkalaemia, Mild” value (25 mg BID (N = 30)) was 7 (23.3) n (%), the “On-treatment TEAE: Hyperkalaemia, Moderate” value (25 mg BID (N = 30)) was 2 (6.7) n (%) and the “On-treatment TEAE: Hyperkalaemia, Severe” value (25 mg BID (N = 30)) was 0 n (%). The “On-treatment TEAE: Hypertension” value (25 mg BID (N = 30)) was 1 (3.3) n (%), the “On-treatment TEAE: Hypertension, Moderate” value (25 mg BID (N = 30)) was 0 n (%) and the “On-treatment TEAE: Infections and infestations” value (25 mg BID (N = 30)) was 3 (10.0) n (%). The “On-treatment TEAE: Infections and infestations, Mild” value (25 mg BID (N = 30)) was 2 (6.7) n (%), the “On-treatment TEAE: Infections and infestations, Moderate” value (25 mg BID (N = 30)) was 1 (3.3) n (%) and the “On-treatment TEAE: Investigations” value (25 mg BID (N = 30)) was 3 (10.0) n (%). The “On-treatment TEAE: Investigations, Mild” value (25 mg BID (N = 30)) was 2 (6.7) n (%), the “On-treatment TEAE: Investigations, Moderate” value (25 mg BID (N = 30)) was 1 (3.3) n (%) and the “On-treatment TEAE: Metabolism and nutrition disorders” value (25 mg BID (N = 30)) was 10 (33.3) n (%). For the same compound, the “On-treatment TEAE: Metabolism and nutrition disorders, Mild” value (25 mg BID (N = 30)) was 8 (26.7) n (%), the “On-treatment TEAE: Metabolism and nutrition disorders, Moderate” value (25 mg BID (N = 30)) was 2 (6.7) n (%) and the “On-treatment TEAE: Nervous system disorders” value (25 mg BID (N = 30)) was 3 (10.0) n (%). The “On-treatment TEAE: Nervous system disorders, Mild” value (25 mg BID (N = 30)) was 2 (6.7) n (%), the “On-treatment TEAE: Orthostatic hypotension” value (25 mg BID (N = 30)) was 0 n (%) and the “On-treatment TEAE: Orthostatic hypotension, Mild” value (25 mg BID (N = 30)) was 0 n (%). The “On-treatment TEAE: Psychiatric disorders” value (25 mg BID (N = 30)) was 0 n (%), the “On-treatment TEAE: Psychiatric disorders, Moderate” value (25 mg BID (N = 30)) was 0 n (%) and the “On-treatment TEAE: Urinary tract infection” value (25 mg BID (N = 30)) was 3 (10.0) n (%). The “On-treatment TEAE: Urinary tract infection, Mild” value (25 mg BID (N = 30)) was 2 (6.7) n (%), the “On-treatment TEAE: Vascular disorders” value (25 mg BID (N = 30)) was 1 (3.3) n (%) and the “On-treatment TEAE: Vascular disorders, Mild” value (25 mg BID (N = 30)) was 1 (3.3) n (%). For the same compound, the “On-treatment TEAE: Vascular disorders, Moderate” value (25 mg BID (N = 30)) was 0 n (%), the “On-treatment TEAE: any, Mild” value (25 mg BID (N = 30)) was 14 (46.7) n (%) and the “On-treatment TEAE: any, Moderate” value (25 mg BID (N = 30)) was 4 (13.3) n (%). The “On-treatment TEAE: any, Severe” value (25 mg BID (N = 30)) was 0 n (%), the “Subjects with any On-treatment TEAEs leading to withdrawal from study drug” value (25 mg BID (N = 30)) was 1 (3.3) n (%) and the “TEAE leading to permanent discontinuation from study drug: Activated partial thromboplastin time prolonged” value (25 mg BID (N = 30)) was 0 n (%). The “TEAE leading to permanent discontinuation from study drug: Cardiac disorders” value (25 mg BID (N = 30)) was 0 n (%), the “TEAE leading to permanent discontinuation from study drug: Coronary artery disease” value (25 mg BID (N = 30)) was 0 n (%) and the “TEAE leading to permanent discontinuation from study drug: Dizziness” value (25 mg BID (N = 30)) was 0 n (%). The “TEAE leading to permanent discontinuation from study drug: Hyperkalaemia” value (25 mg BID (N = 30)) was 1 (3.3) n (%), the “TEAE leading to permanent discontinuation from study drug: Hypertension” value (25 mg BID (N = 30)) was 1 (3.3) n (%) and the “TEAE leading to permanent discontinuation from study drug: Hypotension” value (25 mg BID (N = 30)) was 0 n (%). For the same compound, the “TEAE leading to permanent discontinuation from study drug: Investigations” value (25 mg BID (N = 30)) was 0 n (%), the “TEAE leading to permanent discontinuation from study drug: Metabolism and nutrition disorders” value (25 mg BID (N = 30)) was 1 (3.3) n (%) and the “TEAE leading to permanent discontinuation from study drug: Nervous system disorders” value (25 mg BID (N = 30)) was 0 n (%). The “TEAE leading to permanent discontinuation from study drug: Orthostatic hypotension” value (25 mg BID (N = 30)) was 0 n (%), the “TEAE leading to permanent discontinuation from study drug: Vascular disorders” value (25 mg BID (N = 30)) was 1 (3.3) n (%) and the “On-treatment TEAE: Blood and lymphatic system disorders” value (50 mg QD (N = 28)) was 0 n (%). For the same compound, the “On-treatment TEAE: Blood and lymphatic system disorders, Mild” value (50 mg QD (N = 28)) was 0 n (%), the “On-treatment TEAE: Blood creatinine increased” value (50 mg QD (N = 28)) was 0 n (%) and the “On-treatment TEAE: Blood creatinine increased, Mild” value (50 mg QD (N = 28)) was 0 n (%). The “On-treatment TEAE: Cardiac disorders” value (50 mg QD (N = 28)) was 1 (3.6) n (%), the “On-treatment TEAE: Cortisol decreased” value (50 mg QD (N = 28)) was 0 n (%) and the “On-treatment TEAE: Cortisol decreased, Mild” value (50 mg QD (N = 28)) was 0 n (%). For the same compound, the “On-treatment TEAE: Dizziness” value (50 mg QD (N = 28)) was 2 (7.1) n (%), the “On-treatment TEAE: Gastrointestinal disorders” value (50 mg QD (N = 28)) was 1 (3.6) n (%) and the “On-treatment TEAE: Gastrointestinal disorders, Mild” value (50 mg QD (N = 28)) was 1 (3.6) n (%).
